The pIC50 is −log10 of the IC50, conventionally taken in molar units.

This assay has as its target T1, human PD-1 (Jurkat-PD-1 cells) / PE-labeled human PD-L1-Ig (Homo sapiens, UniProt Q15116).
T1 construct: expressed in transfected cells; host or cells: Jurkat cell line over-expressing human PD-1
The assay can be described thus: Jurkat-PD-1 Cell Binding High-Content Screening Assay (CBA); Jurkat hPD1-PDL1 assay. The settings on record: Jurkat cell line over-expressing human PD-1; PE-labeled PD-L1-Ig 20 nM final; compound incubated 2 hours at 37° C.; read-out: Jurkat HPD1-PDL1 IC50. An outline of the steps:
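Compound was added to Jurkat-PD-1 cells in DMEM plus 10% fetal calf serum and incubated 2 hours at 37° C. Binding of phycoerythrin-conjugated PD-L1-Ig (20 nM final) to the cells was imaged.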

pIC50: −log10 of the molar value. Positions of bridges follow the written chain, without caps; N, C: chain ends. Non-standard residues stand in square brackets, D forms with d. Residues, ends and D or L forms follow the SMILES beside them. ξ: configuration not given here. *: point of attachment. Phe(3,4,5-F3) = N[C@@H](Cc1cc(F)c(F)c(F)c1)C(=O)O; Phe(4-COOH) = N[C@@H](Cc1ccc(C(=O)O)cc1)C(=O)O; Bip = N[C@@H](Cc1ccc(-c2ccccc2)cc1)C(=O)O; Phe(3-Me) = Cc1cccc(C[C@H](N)C(=O)O)c1; NMeF = CN[C@@H](Cc1ccccc1)C(=O)O; 3Pal = N[C@@H](Cc1cccnc1)C(=O)O; 4Pal = N[C@@H](Cc1ccncc1)C(=O)O; Cha = N[C@@H](CC1CCCCC1)C(=O)O; Thr(3ξ) = CC(O)[C@H](N)C(=O)O; Carboxymethyl = O=C(O)C*; NMeA = CN[C@@H](C)C(=O)O; Orn = NCCC[C@H](N)C(=O)O; Dab = NCC[C@H](N)C(=O)O; Dap = NC[C@H](N)C(=O)O; ξV = CC(C)C(N)C(=O)O; Sar = CNCC(=O)O

T1 sequence (Q15116 25-288): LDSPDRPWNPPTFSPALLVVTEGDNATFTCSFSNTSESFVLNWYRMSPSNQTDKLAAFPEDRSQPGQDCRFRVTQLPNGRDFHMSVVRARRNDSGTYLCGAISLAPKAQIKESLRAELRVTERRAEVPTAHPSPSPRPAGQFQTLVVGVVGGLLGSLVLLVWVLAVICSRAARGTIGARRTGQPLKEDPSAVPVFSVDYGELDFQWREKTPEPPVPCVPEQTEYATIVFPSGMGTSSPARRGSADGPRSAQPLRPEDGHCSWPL

On to `CC(C)C[C@@H]1NC(=O)[C@H](CCCNC(=N)N)NC(=O)[C@H](Cc2ccccc2)N(C)C(=O)[C@H](CN)NC(=O)[C@H](CCCNC(=N)N)NC(=O)[C@H](Cc2ccc(-c3ccccc3)cc2)NC(=O)[C@H](C(C)C)NC(=O)[C@H](Cc2c[nH]c3ccccc23)NC(=O)[C@H](CC(=O)O)NC(=O)[C@H](Cc2ccc(O)cc2)NC(=O)[C@H](CC(N)=O)NC(=O)CSC[C@@H](C(=O)N[C@@H](C)C(N)=O)NC(=O)[C@H]([C@@H](C)O)NC(=O)[C@H](C(C)C)NC1=O` [Example 1364] ({CH2CO}-NYDWV[Bip]R[Dap][NMeF]RLVTCA-NH2; thioether N-14), for which the pIC50 was 6.23. As to `CC(C)C[C@@H]1NC(=O)[C@H](CCCNC(=N)N)NC(=O)[C@H](Cc2ccccc2)N(C)C(=O)[C@H](C)N(C)C(=O)[C@H](CCCNC(=N)N)NC(=O)[C@H](Cc2ccc(-c3ccccc3)cc2)NC(=O)[C@H](C(C)C)NC(=O)[C@H](Cc2c[nH]c3ccccc23)NC(=O)[C@H](CC(=O)O)NC(=O)[C@H](Cc2cnc[nH]2)NC(=O)[C@H](Cc2ccccc2)NC(=O)CSC[C@@H](C(=O)NCC(N)=O)NC(=O)[C@H](CO)NC(=O)[C@H](C(C)C)NC1=O` [Example 1249] ({CH2CO}-FHDWV[Bip]R[NMeA][NMeF]RLVSCG-NH2; thioether N-14), the negative-log IC50 (pIC50) was 6.57. The result for `CC(C)C[C@@H]1NC(=O)[C@H](CCCNC(=N)N)NC(=O)[C@H](Cc2ccccc2)N(C)C(=O)[C@H](C)N(C)C(=O)[C@H](CCCNC(=N)N)NC(=O)[C@H](Cc2ccc(-c3ccccc3)cc2)NC(=O)[C@H](C(C)C)NC(=O)[C@H](Cc2c[nH]c3ccccc23)NC(=O)[C@H](CC(=O)O)NC(=O)[C@H](Cc2ccc(O)cc2)NC(=O)[C@H](CCC(=O)O)NC(=O)CSC[C@@H](C(=O)NCC(N)=O)NC(=O)[C@H](CO)NC(=O)[C@H](C(C)C)NC1=O` [Example 1210] ({CH2CO}-EYDWV[Bip]R[NMeA][NMeF]RLVSCG-NH2; thioether N-14) reads 6.22. In the case of `CC(C)C[C@@H]1NC(=O)CSC[C@@H](C(=O)NCC(N)=O)NC(=O)[C@H](CO)NC(=O)[C@H](C(C)C)NC(=O)[C@H](CC(C)C)NC(=O)[C@H](CCCNC(=N)N)NC(=O)[C@H](Cc2ccccc2)N(C)C(=O)[C@H](C)N(C)C(=O)[C@H](CCCNC(=N)N)NC(=O)[C@H](Cc2ccc(-c3ccccc3)cc2)NC(=O)[C@H](C(C)C)NC(=O)[C@H](Cc2c[nH]c3ccccc23)NC(=O)[C@H](CC(=O)O)NC(=O)[C@H](Cc2ccc(C(=O)O)cc2)NC1=O` [Example 1295] ({CH2CO}-L[Phe(4-COOH)]DWV[Bip]R[NMeA][NMeF]RLVSCG-NH2; thioether N-14) it was 6.68; in that of `Cc1cccc(C[C@@H]2NC(=O)[C@H](CC(=O)O)NC(=O)[C@H](Cc3ccncc3)NC(=O)[C@H](Cc3ccc(OCC(=O)O)cc3)NC(=O)CSC[C@@H](C(=O)N[C@@H](C)C(N)=O)NC(=O)[C@H]([C@@H](C)O)NC(=O)[C@H](C(C)C)NC(=O)[C@H](CC3CCCCC3)NC(=O)[C@H](CCN)NC(=O)[C@H](Cc3ccccc3)N(C)C(=O)[C@H](CCCN)NC(=O)[C@H](CCC(=O)O)NC(=O)[C@H](Cc3ccc(-c4ccccc4)cc3)NC(=O)C(C(C)C)NC2=O)c1` (stereo partly drawn) [Example 1446] ({CH2CO}-Y(Carboxymethyl)[4Pal]D[Phe(3-Me)][ξV][Bip]E[Orn][NMeF][Dab][Cha]VTCA-NH2; thioether N-14), 7.70; in that of `CC(C)C[C@@H]1NC(=O)[C@H](Cc2c[nH]c3ccccc23)NC(=O)[C@H](CC(=O)O)NC(=O)[C@H](Cc2ccc(O)cc2)NC(=O)[C@H](CC(N)=O)NC(=O)CSC[C@@H](C(=O)N[C@@H](C)C(N)=O)NC(=O)[C@H]([C@@H](C)O)NC(=O)[C@H](C(C)C)NC(=O)[C@H](CC(C)C)NC(=O)[C@H](CCN)NC(=O)[C@H]2CCCN2C(=O)[C@H](CCCN)NC(=O)[C@H](C(C)C)NC(=O)[C@H](Cc2ccc(-c3ccccc3)cc2)NC1=O` [Example 1402] ({CH2CO}-NYDWL[Bip]V[Orn][dP][Dab]LVTCA-NH2; thioether N-14), 6.59. In the case of `CC(C)C[C@@H]1NC(=O)[C@H](CCCNC(=N)N)NC(=O)[C@H](Cc2ccccc2)N(C)C(=O)[C@H](C)N(C)C(=O)[C@H](CCCNC(=N)N)NC(=O)[C@H](Cc2ccc(-c3ccccc3)cc2)NC(=O)[C@H](C(C)C)NC(=O)[C@H](Cc2c[nH]c3ccccc23)NC(=O)[C@H](CC(=O)O)NC(=O)[C@H](Cc2ccc(O)cc2)NC(=O)[C@H](Cc2ccccc2)NC(=O)CSC[C@@H](C(=O)N[C@H](C(N)=O)C(C)O)NC(=O)[C@H](CO)NC(=O)[C@H](C(C)C)NC1=O` (stereo partly drawn) [Example 1063] ({CH2CO}-FYDWV[Bip]R[NMeA][NMeF]RLVSC[Thr(3ξ)]-NH2; thioether N-14) it was 6.80; in that of `CC(C)C[C@@H]1NC(=O)[C@H](Cc2c[nH]c3ccccc23)NC(=O)[C@H](CC(=O)O)NC(=O)[C@H](Cc2ccc(O)cc2)NC(=O)[C@H](Cc2ccccc2)NC(=O)CSC[C@@H](C(=O)NCC(N)=O)NC(=O)[C@H]([C@@H](C)O)NC(=O)[C@H](C(C)C)NC(=O)[C@H](CC(C)C)NC(=O)[C@H](CCN)NC(=O)[C@H]2CCCN2C(=O)[C@H](CCN)NC(=O)[C@H](C(C)C)NC(=O)[C@H](Cc2ccc(-c3ccccc3)cc2)NC1=O` [Example 1414] ({CH2CO}-FYDWL[Bip]V[Dab][dP][Dab]LVTCG-NH2; thioether N-14), 6.49. Regarding `CC(C)C[C@@H]1NC(=O)[C@H](CCCNC(=N)N)NC(=O)[C@H](Cc2ccccc2)N(C)C(=O)[C@H](C)N(C)C(=O)[C@H](CCCNC(=N)N)NC(=O)[C@H](Cc2ccc(-c3ccccc3)cc2)NC(=O)[C@H](C(C)C)NC(=O)[C@H](Cc2c[nH]c3ccccc23)NC(=O)[C@H](CC(=O)O)NC(=O)[C@H](Cc2ccc(O)cc2)NC(=O)[C@H](CC(N)=O)NC(=O)CSC[C@@H](C(=O)NCC(N)=O)NC(=O)[C@H]([C@@H](C)O)NC(=O)[C@H](C(C)C)NC1=O` [Example 1310] ({CH2CO}-NYDWV[Bip]R[NMeA][NMeF]RLVTCG-NH2; thioether N-14), the negative-log IC50 (pIC50) is 6.47. For the molecule `CC(C)C[C@@H]1NC(=O)[C@H](CCCN)NC(=O)[C@H](Cc2ccccc2)N(C)C(=O)[C@H](C)N(C)C(=O)[C@H](CCCNC(=N)N)NC(=O)[C@H](Cc2ccc(-c3ccccc3)cc2)NC(=O)[C@H](C(C)C)NC(=O)[C@H](Cc2c[nH]c3ccccc23)NC(=O)[C@H](CC(=O)O)NC(=O)[C@H](Cc2ccc(O)cc2)NC(=O)[C@H](Cc2ccccc2)NC(=O)CSC[C@@H](C(=O)N[C@@H](CCC(=O)O)C(N)=O)NC(=O)[C@H]([C@@H](C)O)NC(=O)[C@H](C(C)C)NC1=O` [Example 1361] ({CH2CO}-FYDWV[Bip]R[NMeA][NMeF][Orn]LVTCE-NH2; thioether N-14), the pIC50 was 6.42.

Regarding `CC(C)C[C@@H]1NC(=O)[C@H](Cc2c[nH]c3ccccc23)NC(=O)[C@H](CC(=O)O)NC(=O)[C@H](Cc2ccc(C(=O)O)cc2)NC(=O)[C@H](Cc2cccnc2)NC(=O)CSC[C@@H](C(=O)N[C@@H](C)C(N)=O)NC(=O)[C@H](CO)NC(=O)[C@H](C(C)C)NC(=O)[C@H](CC(C)C)NC(=O)[C@H](CC(N)=O)NC(=O)[C@H]2CCCN2C(=O)[C@H](C)N(C)C(=O)[C@H](C(C)C)NC(=O)[C@H](Cc2ccc(-c3ccccc3)cc2)NC1=O` [Example 1025] ({CH2CO}-[3Pal][Phe(4-COOH)]DWL[Bip]V[NMeA][dP]NLVSCA-NH2; thioether N-14), the negative-log IC50 (pIC50) is 7.40. As to `CC(C)C[C@@H]1NC(=O)[C@H](CCCNC(=N)N)NC(=O)[C@H](Cc2ccccc2)N(C)C(=O)[C@H](C)N(C)C(=O)[C@H](CCCNC(=N)N)NC(=O)[C@H](Cc2ccc(-c3ccccc3)cc2)NC(=O)[C@H](C(C)C)NC(=O)[C@H](Cc2c[nH]c3ccccc23)NC(=O)[C@H](CC(=O)O)NC(=O)[C@H](Cc2ccc(O)cc2)NC(=O)[C@H](Cc2cccnc2)NC(=O)CSC[C@@H](C(=O)N[C@@H](C)C(N)=O)NC(=O)[C@H]([C@@H](C)O)NC(=O)[C@H](C(C)C)NC1=O` [Example 1348] ({CH2CO}-[3Pal]YDWV[Bip]R[NMeA][NMeF]RLVTCA-NH2; thioether N-14), the negative logarithm of the IC50 (pIC50) is 6.66. For the molecule `CC(C)C[C@@H]1NC(=O)[C@H](Cc2c[nH]c3ccccc23)NC(=O)[C@H](CC(=O)O)NC(=O)[C@H](Cc2ccc(O)cc2)NC(=O)[C@H](Cc2ccccc2)NC(=O)CSC[C@@H](C(=O)N[C@@H](C)C(N)=O)NC(=O)[C@H](CO)NC(=O)[C@H](C(C)C)NC(=O)[C@H](CC(C)C)NC(=O)[C@H](CC(N)=O)NC(=O)[C@H]2CCCN2C(=O)[C@H]2CCCN2C(=O)[C@H](C(C)C)NC(=O)[C@H](Cc2ccc(-c3ccccc3)cc2)NC1=O` [Example 1007] ({CH2CO}-FYDWL[Bip]V[dP][dP]NLVSCA-NH2; thioether N-14), the negative logarithm of the IC50 (pIC50) is 6.82.

`CC(C)C[C@@H]1NC(=O)[C@H](CCN)NC(=O)[C@H](Cc2ccccc2)N(C)C(=O)[C@H](C)N(C)C(=O)[C@H](CCCNC(=N)N)NC(=O)[C@H](Cc2ccc(-c3ccccc3)cc2)NC(=O)[C@H](C(C)C)NC(=O)[C@H](Cc2c[nH]c3ccccc23)NC(=O)[C@H](CC(=O)O)NC(=O)[C@H](Cc2ccc(O)cc2)NC(=O)[C@H](CC(N)=O)NC(=O)CSC[C@@H](C(=O)N[C@@H](C)C(N)=O)NC(=O)[C@H](CO)NC(=O)[C@H](C(C)C)NC1=O` [Example 1303] ({CH2CO}-NYDWV[Bip]R[NMeA][NMeF][Dab]LVSCA-NH2; thioether N-14): the pIC50 was 7.15. The result for `CC(C)C[C@@H]1NC(=O)[C@H](Cc2c[nH]c3ccccc23)NC(=O)[C@H](CC(=O)O)NC(=O)[C@H](Cc2ccc(O)cc2)NC(=O)[C@H](Cc2cc(F)c(F)c(F)c2)NC(=O)CSC[C@@H](C(=O)NCC(N)=O)NC(=O)[C@H](CO)NC(=O)[C@H](C(C)C)NC(=O)[C@H](CC(C)C)NC(=O)[C@H](CC(N)=O)NC(=O)CN(C)C(=O)[C@H](C)N(C)C(=O)[C@H](C(C)C)NC(=O)[C@H](Cc2ccc(-c3ccccc3)cc2)NC1=O` [Example 1098] ({CH2CO}-[Phe(3,4,5-F3)]YDWL[Bip]V[NMeA][Sar]NLVSCG-NH2; thioether N-14) reads 6.51.

The record behind these values is patent publication US20240360178A1, “MACROCYCLIC IMMUNOMODULATORS” (Bristol-Myers Squibb Company, priority 2021, published 2024).
